These results are taken from US12331038B2, “Hexone glucokinase inhibitor and use thereof” (SHANDONG XUANZHU PHARMA CO., LTD., priority 2019, dated 2025).

For one assay, the system named is HepG2 cells. The assay is described as follows: Inhibition of production of fructose-1-phosphate induced by D-Fructose in HepG2 cells (LC-MS). Conditions: 30 min compound pre-incubation, D-Fructose 3 hours. The class given is cell-based. As for the experimental part:
Experimental Protocol: 1. Cell Culture and Inoculation • 1) HepG2 cells in the logarithmic growth phase were collected and counted with a […]. The Trypan blue exclusion method was used to detect cell viability and ensure that cell viability is 90% or above. • 2) The concentration of HepG2 cells was adjusted, and 81 μL of the cell suspension in a FBS-free basal medium (starvation treatment) was add to a 96-well plate, with a cell inoculum amount of 5×10^4 cells per test well. • 3) The HepG2 cells in the 96-well plate were cultured overnight at 37° C., 5% CO2, and 95% humidity. 2. Administration • 1) Before administration, 9 μL of FBS was added to the test wells of the 96-well plate to stop the starvation treatment. • 2) 10× stock solutions of the individual test compounds were prepared by dilution in a 3-fold gradient to 8 concentrations, with the highest concentration of 100 μM. 10 μL of the test compound solutions was added to each well of the 96-well plate inoculated with the cells, in triplicate per test compound concentration. For the solvent control, 10 μL of 1% DMSO solution was added to each well, in triplicate. • 3) The cells in the 96-well plate added with the test compounds were incubated at 37° C., 5% CO2, and 95% humidity for 30 min. • 4) An 11-fold D-Fructose solution was prepared at the concentration of 220 mM. 10 μL of the D-Fructose solution was added to the 96-well plate inoculated with HepG2 cells per well, in triplicate. For the solvent control, 10 μL of 11% DPBS solution was added, in triplicate. • 5) The cells in the 96-well plate added with D-fructose were incubated at 37° C., 5% CO2, and 95% humidity for 3 hours. 3. Sample Treatment The medium in the 96-well plate was removed, and the cells in the 96-well plate were washed with cold DPBS (200 μl/well) for 3 times. 30 μL of cold 10 mM ammonium acetate (pH 7.4) was added into each well to lyse the cells (hypotonic lysis). After lysis on ice for 5 minutes, the cells were fully pipetted and the cell lysate was taken for LC-MS analysis. 4. Data Analysis The data were analyzed with GraphPad Prism 5.0 software, and fitted with nonlinear S-curve regression, so as to obtain a dose-effect curve to calculate the EC50 value. 5.

The target in assay [1] is T1, KHK-C (Homo sapiens (Human), UniProt P50053). The assay is described as follows: Inhibitory activity against KHK-C kinase in vitro (ADP-Glo), Experimental Protocol II. The format is biochemical. To be noted: 1 nM KHK-C, 100 μM ATP, 200 μM D-Fructose, control drug top concentration 1000 nM. As for the experimental part:
Experimental Protocol II: 1. Compound Dilution • 1) The compounds of the present invention and the control drug were formulated in DMSO to 10 mM as stock solutions for test. • 2) The stock solutions of the compounds of the present invention were diluted by 10-fold to 1 mM, and then further diluted in a 3-fold gradient to 11 concentrations, with the highest concentration being 1 mM. The stock solution of the control drug was diluted by 100-fold to 0.1 mM, and then further diluted in a 3-fold gradient to 11 concentrations, with the highest concentration being 0.1 mM. • 3) 0.1 μL of the compounds of the present invention and the control drug as diluted was transferred with Echo550 to a 384-well plate, in duplicate per concentration, and then centrifuged at 1000 rpm for 1 min. 2. Enzyme Reaction Test • 1) 5 μL of KHK-C kinase working solution was added to the 384-well plate, centrifuged at 1000 rpm for 1 min, and then incubated at room temperature of 25° C. for 15 min. • 2) 5 μL of the substrate working solution was added to the 384-well plate to initiate the kinase reaction, centrifuged at 1000 rpm for 1 min, and incubated at room temperature of 25° C. for 60 min. • 3) The final concentrations of the KHK-C kinase reaction system were 1 nM for KHK-C, 100 μM for ATP, 200 μM for D-Fructose, 50 mM for HEPES, 10 mM for MgCl2, and 0.01% for Brij35, and the final concentration of DMSO was 1%. • 4) The final concentrations of the test compounds were 10000 nM, 3333.33 nM, 1111.11 nM, 370.37 nM, 123.457 nM, 41.15 nM, 13.71 nM, 4.572 nM, 1.524 nM, 0.508 nM, and 0.169 nM, respectively. • 5) The final concentrations of the control drug were 1000 nM, 333.33 nM, 111.11 nM, 37.037 nM, 12.346 nM, 4.115 nM, 1.371 nM, 0.4572 nM, 0.1524 nM, 0.0508 nM, and 0.0169 nM, respectively. 3. Reaction Termination and Detection • 1) The 384-well plate was added with 10 μL of the ADP Glo reagent, centrifuged at 1000 rpm for 1 min, and then incubated at room temperature of 25° C. for 40 min. • 2) The 384-well plate was added with 20 μL of the kinase detection reagent, centrifuged at 1000 rpm for 1 min, and then incubated at room temperature of 25° C. for 40 min. • 3) After the reaction was completed, the […] value LUM was read on Envision. 4. Data Analysis The following equation was used to calculate the inhibition (% inh): […]
In general terms: In ADP-Glo the light output rises with the ADP produced.

In assay [2] the target is T1, KHK-C. The assay is described as follows: Inhibitory activity against KHK-C kinase in vitro (ADP-Glo), Experimental Protocol I. The class given is biochemical. Conditions: 1 nM KHK-C, 100 μM ATP, 200 μM D-Fructose, control drug top concentration 10000 nM. As for the experimental part: 2. […] 3. Reaction Termination and Detection • 1) The 384-well plate was added with 10 μL of the ADP Glo reagent, centrifuged at 1000 rpm for 1 min, and then incubated at room temperature of 25° C. for 40 min. • 2) The 384-well plate was added with 20 μL of the kinase detection reagent, centrifuged at 1000 rpm for 1 min, and then incubated at room temperature of 25° C. for 40 min. • 3) After the reaction was completed, the […] value LUM was read on Envision. 4. Data Analysis The following equation was used to calculate the inhibition (% inh): […]

T1 sequence (P50053 whole entry): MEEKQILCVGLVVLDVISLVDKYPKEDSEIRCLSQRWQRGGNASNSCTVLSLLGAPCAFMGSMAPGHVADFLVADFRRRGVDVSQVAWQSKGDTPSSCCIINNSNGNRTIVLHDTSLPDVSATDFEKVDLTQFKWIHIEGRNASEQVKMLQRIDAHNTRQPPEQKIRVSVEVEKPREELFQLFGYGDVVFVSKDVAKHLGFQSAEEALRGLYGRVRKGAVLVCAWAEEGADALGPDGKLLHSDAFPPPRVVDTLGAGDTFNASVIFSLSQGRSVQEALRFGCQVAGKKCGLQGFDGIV

By EC50 is commonly meant the concentration giving half of the maximal effect. Low readings indicate an effect from little substance, high ones a need for much substance. As usually defined, the IC50 is the concentration that inhibits the measured activity by half. Low readings indicate higher potency, high ones lower potency. `C[C@H]1N(c2nc(N3C[C@@H]4[C@@H](CC(=O)O)[C@@H]4C3)c3c(n2)C(F)(F)CCC3)CC1(F)F` (single isomer, unassigned) [Compound 4-2] returned an EC50 in the assay on HepG2 cells (Homo sapiens) of 18.2 nM. The molecule further registered an IC50 against KHK-C [1] of 1.5 nM.
For `C[C@H]1CCN1c1nc(N2C[C@@H]3[C@@H](CC(=O)O)[C@@H]3C2)c2c(n1)C(F)(F)CC2` [Compound 1, 2-((1R,5S,6R)-3-(7,7-difluoro-2-((S)-2-methylazetidin-1-yl)-6,7-dihydro-5H-cyclopenta[d]pyrimidin-4-yl)-3-azabicyclo[3.1.0]hexan-6-yl)acetic acid], the EC50 in the assay on HepG2 cells (Homo sapiens) was determined as 21.9 nM. This lies in the double-digit nanomolar range.
Regarding `C[C@H]1CCN1c1nc(N2C[C@@H]3[C@@H](CC(=O)O)[C@@H]3C2)c2c(n1)C(F)(F)CCC2` [Compound 2, 2-((1R,5S,6R)-3-(8,8-difluoro-2-((S)-2-methylazetidin-1-yl)-5,6,7,8-tetrahydroquinazolin-4-yl)-3-azabicyclo[3.1.0]hexan-6-yl)acetic acid], the EC50 in the assay on HepG2 cells (Homo sapiens) is 14.5 nM. Moreover, the IC50 at KHK-C [2] stood at 0.52 nM.
On to `CC1C(F)CN1c1nc(N2C[C@@H]3[C@@H](CC(=O)O)[C@@H]3C2)c2c(n1)C(F)(F)CCC2` (stereo partly drawn) [Compound 3-1, 2-((1R,5S,6s)-3-(8,8-difluoro-2-(3-fluoro-2-methylazetidin-1-yl)-5,6,7,8-tetrahydroquinazolin-4-yl)-3-azabicyclo[3.1.0]hexan-6-yl)acetic acid], for which the EC50 with HepG2 cells (Homo sapiens) is 7.3 nM. At KHK-C [1], this molecule registered an IC50 of 0.73 nM.
In the assay on HepG2 cells (Homo sapiens), `CC1N(c2nc(N3C[C@@H]4[C@@H](CC(=O)O)[C@@H]4C3)c3c(n2)C(F)(F)CCC3)CC1(F)F` (stereo partly drawn) [Compound 4-1, 2-((1R,5S,6s)-3-(2-(3,3-difluoro-2-methylazetidin-1-yl)-8,8-difluoro-5,6,7,8-tetrahydroquinazolin-4-yl)-3-azabicyclo[3.1.0]hexan-6-yl)acetic acid] returned an EC50 of 11.8 nM. Moreover, 2.2 nM corresponded to half-maximal inhibition against KHK-C [1] (IC50).
Take `CC1C(F)CN1c1nc(N2C[C@@H]3[C@@H](CC(=O)O)[C@@H]3C2)c2c(n1)C(F)(F)CC2` (stereo partly drawn) [Compound 6-1, 2-((1R,5S,6s)-3-(7,7-difluoro-2-(3-fluoro-2-methylazetidin-1-yl)-6,7-dihydro-5H-cyclopenta[d]pyrimidin-4-yl)-3-azabicyclo[3.1.0]hexan-6-yl)acetic acid]: the EC50 in the assay on HepG2 cells (Homo sapiens) was determined as 39 nM. This molecule had an IC50 on KHK-C [1] of 0.9 nM.
`C[C@H]1CCN1c1nc(N2C[C@@H]3C(CC(=O)O)[C@@H]3C2)cc(C(F)(F)F)n1` (stereo partly drawn) [PF-06835919, reference compound] showed an EC50 in the assay with HepG2 cells of 169 nM.
